# According to the supplement of paper PMC11451515:
# Tested on: SEM cells
# Test: cell viability relative to DMSO control; higher = less cytotoxic
# Settings: 48 h
# Procedure, shortened: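 Before seeding, each leukemia line was adapted for at least four passages in each medium. NOMO1 or SEM cells (500 cells/well) and P12-Ichikawa cells (1000 cells/well) went into 1536-well plates at 5 μl, then received library compounds in DMSO by pin dosing across 11 threefold concentrations, 47 μM to 0.79 nM. Readout was CellTiter-Glo One luminescence after 48 h at 37°C, and viability is given as a per-plate percentage of DMSO wells, with cell-free wells as background.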
# [1] = HPLM + 10% dialyzed FBS, 0.000781 µM
# [2] = HPLM + 10% dialyzed FBS, 0.00234 µM
# [3] = HPLM + 10% dialyzed FBS, 0.00702 µM
# [4] = HPLM + 10% dialyzed FBS, 0.0211 µM
# [5] = HPLM + 10% dialyzed FBS, 0.0632 µM
# [6] = HPLM + 10% dialyzed FBS, 0.19 µM
# [7] = HPLM + 10% dialyzed FBS, 0.569 µM
# [8] = HPLM + 10% dialyzed FBS, 1.71 µM
# [9] = HPLM + 10% dialyzed FBS, 5.12 µM
# [10] = HPLM + 10% dialyzed FBS, 15.4 µM
# [11] = HPLM + 10% dialyzed FBS, 46.1 µM
# [12] = RPMI 5 mM glucose + 10% FBS, 0.000781 µM
# [13] = RPMI 5 mM glucose + 10% FBS, 0.00234 µM
# [14] = RPMI 5 mM glucose + 10% FBS, 0.00702 µM
# [15] = RPMI 5 mM glucose + 10% FBS, 0.0211 µM
# [16] = RPMI 5 mM glucose + 10% FBS, 0.0632 µM
# [17] = RPMI 5 mM glucose + 10% FBS, 0.19 µM
# [18] = RPMI 5 mM glucose + 10% FBS, 0.569 µM
# [19] = RPMI 5 mM glucose + 10% FBS, 1.71 µM
# [20] = RPMI 5 mM glucose + 10% FBS, 5.12 µM
# [21] = RPMI 5 mM glucose + 10% FBS, 15.4 µM
# [22] = RPMI 5 mM glucose + 10% FBS, 46.1 µM
# [23] = RPMI 5 mM glucose + 10% dialyzed FBS, 0.000781 µM
# [24] = RPMI 5 mM glucose + 10% dialyzed FBS, 0.00234 µM
# [25] = RPMI 5 mM glucose + 10% dialyzed FBS, 0.00702 µM
# [26] = RPMI 5 mM glucose + 10% dialyzed FBS, 0.0211 µM
# [27] = RPMI 5 mM glucose + 10% dialyzed FBS, 0.0632 µM
# [28] = RPMI 5 mM glucose + 10% dialyzed FBS, 0.19 µM
# [29] = RPMI 5 mM glucose + 10% dialyzed FBS, 0.569 µM
# [30] = RPMI 5 mM glucose + 10% dialyzed FBS, 1.71 µM
# [31] = RPMI 5 mM glucose + 10% dialyzed FBS, 5.12 µM
# [32] = RPMI 5 mM glucose + 10% dialyzed FBS, 15.4 µM
# [33] = RPMI 5 mM glucose + 10% dialyzed FBS, 46.1 µM
SMILES,cell viability [1],cell viability [2],cell viability [3],cell viability [4],cell viability [5],cell viability [6],cell viability [7],cell viability [8],cell viability [9],cell viability [10],cell viability [11],cell viability [12],cell viability [13],cell viability [14],cell viability [15],cell viability [16],cell viability [17],cell viability [18],cell viability [19],cell viability [20],cell viability [21],cell viability [22],cell viability [23],cell viability [24],cell viability [25],cell viability [26],cell viability [27],cell viability [28],cell viability [29],cell viability [30],cell viability [31],cell viability [32],cell viability [33]
COC(=O)C[C@](O)(CCCC(C)(C)O)C(=O)O[C@@H]1C(OC)=CC23CCCN2CCc2cc4c(cc2[C@H]13)OCO4 (stereo partly drawn),106%,103%,108%,108%,105%,120%,119%,109%,94.5%,92.5%,102%,98.4%,101%,106%,98.1%,111%,111%,95.9%,89.6%,84.3%,96.9%,93.3%,104%,100%,104%,106%,97.2%,103%,105%,97.5%,99.7%,99.9%,102%
c1ccc2[nH]c(-c3cscn3)nc2c1,93.6%,120%,111%,107%,115%,105%,109%,69%,111%,42.7%,116%,98.5%,132%,121%,85.9%,112%,108%,126%,71.3%,103%,23.7%,71.7%,112%,127%,121%,94.4%,129%,132%,139%,80.6%,124%,33.7%,97.3%
CC[C@H](/C=C/[C@@H](C)[C@H]1CC[C@H]2[C@@H]3CC=C4C[C@@H](O)CC[C@]4(C)[C@H]3CC[C@]12C)C(C)C,100%,77.3%,94.8%,94.8%,86.4%,108%,81.7%,100%,95.3%,79.1%,89.3%,102%,83.8%,103%,95.2%,101%,96.8%,93.3%,104%,105%,87.4%,84.2%,98%,92.7%,93.3%,104%,111%,90.6%,93.5%,108%,94.1%,87.6%,93.5%
C[C@]12CC[C@@H]3c4ccc(O)cc4CC[C@H]3[C@@H]1[C@@H](O)[C@@H](O)[C@@H]2O,104%,119%,112%,115%,116%,127%,123%,86%,125%,99.9%,84.1%,87.8%,125%,110%,82%,102%,88.5%,94.2%,80%,99%,99.4%,38.8%,101%,110%,120%,118%,121%,132%,126%,90%,129%,103%,64.5%
C[C@]12COC(=O)C[C@@H]1CC[C@@H]1[C@@H]2CC[C@@]2(C)[C@H]1CC[C@]2(C)O,96.4%,97.7%,95.7%,105%,94%,93.3%,85.5%,96.6%,101%,86.3%,88.4%,105%,110%,104%,100%,106%,106%,105%,101%,95.9%,90%,78.4%,98.2%,109%,104%,111%,121%,109%,101%,92%,101%,89.5%,78.6%
FC1=CC=C(C=C1)N2/C=C\C=C(C(=O)NC3=CC=C(OC4=C5C=C[NH]C5=NC=C4)C(=C3)F)/C2=O,92.6%,101%,104%,112%,106%,109%,115%,107%,99.9%,77.3%,75.4%,72.6%,69.9%,65.1%,76%,67.1%,68.1%,73%,71.6%,60.5%,46.9%,40%,101%,96.9%,98.7%,111%,119%,111%,121%,102%,95.7%,74.8%,55.4%
CNc1nc(Nc2ccc(C(=O)N3CCOCC3)cc2OC)ncc1Cl,–,–,–,–,–,–,–,–,–,–,–,107%,120%,101%,104%,113%,107%,70.9%,128%,97.9%,92.4%,42.2%,123%,106%,118%,111%,120%,114%,78.5%,114%,131%,105%,68.8%
NC\1=N\C(=O)N(\C=C1)[C@@H]2O[C@H](CO)[C@@H](O)[C@@H]2O,23.7%,26.1%,17.2%,15.7%,13.3%,11%,10.9%,8.22%,7.91%,7.2%,3.82%,37.4%,37.7%,23.5%,21.1%,11.4%,12.1%,10.4%,8.65%,7.25%,6.17%,1.99%,16.3%,15.2%,14.2%,8.59%,7.4%,7.91%,6.93%,4.74%,3.6%,3.65%,1.52%
CC(C)(C#N)c1cc(Cn2cncn2)cc(C(C)(C)C#N)c1,101%,92.6%,87.4%,103%,111%,104%,21.8%,112%,116%,117%,113%,123%,116%,115%,102%,109%,106%,21.3%,122%,126%,125%,111%,–,–,–,–,–,–,–,–,–,–,–
COc1ccc(-c2ccc3ncc4c(c3c2)n(-c2ccc(N3CCNCC3)c(C(F)(F)F)c2)c(=O)n4C)cn1,72.5%,65.5%,54.5%,44.2%,37.2%,31.8%,31.2%,4.63%,4.31%,3.49%,2.31%,95.8%,77.7%,60.3%,55.9%,45.1%,23.6%,21.5%,5.49%,5.48%,3.64%,2.49%,70%,73.5%,54.5%,46.5%,46%,25.1%,18.4%,5.55%,5.1%,3.87%,2.59%
C[C@]12CC[C@H]3[C@@H](CC[C@H]4NC(=O)\C=C/[C@]34C)[C@@H]1CC[C@@H]2C(=O)NC5=CC(=CC=C5C(F)(F)F)C(F)(F)F,116%,122%,118%,117%,118%,61.3%,119%,113%,81.1%,111%,99.3%,123%,120%,138%,132%,120%,115%,124%,129%,56%,128%,126%,114%,141%,120%,126%,121%,100%,126%,121%,37.1%,117%,105%
CC(C)(O)CC[C@@H](O)[C@](C)(O)[C@H]1CC[C@@]2(O)C/3=C/C(=O)[C@@H]4C[C@@H](O)[C@@H](O)C[C@]4(C)[C@H]3CC[C@]12C,115%,107%,112%,97.8%,97.5%,110%,99.7%,103%,93.5%,89.7%,94.7%,96.3%,93.8%,98.3%,93.4%,102%,98.8%,85.2%,97.7%,96.4%,87%,79.8%,104%,106%,103%,80.2%,81.7%,92.8%,77.3%,104%,83.4%,94.2%,74.6%
O=C(O)C1(Cc2cccc(Nc3nccs3)n2)CCC(Oc2cccc(Cl)c2F)CC1 (stereo not drawn),86.3%,108%,93.3%,68.4%,104%,101%,108%,75.6%,42%,28.9%,18.9%,97%,88.9%,101%,87.4%,114%,96.5%,102%,66.5%,43.1%,22.2%,12.7%,81.9%,86.5%,97.5%,92.6%,95.1%,111%,111%,68.7%,43.2%,25.2%,17.1%
Cc1nc2cnc3ccc(C#Cc4cccnc4)cc3c2n1-c1ccc(C(C)(C)C#N)cc1,65.5%,72.3%,84.3%,86.5%,45.2%,43.3%,28.4%,34%,32.3%,33.2%,17%,87.7%,104%,104%,110%,56.2%,60.2%,47.8%,34.2%,31%,32.4%,16.2%,69.8%,82.4%,84.3%,78.4%,50.4%,48.9%,44.2%,37.2%,31.6%,32.7%,15.7%
CC(C)C1NC(=O)C(NC(=O)C2=C3\N=C\4/C(=C(C)\C(=O)\C(=C4C(=O)NC5C(C)OC(=O)C(C(C)C)N(C)C(=O)CN(C)C(=O)C6CCCN6C(=O)C(NC5=O)C(C)C)N)OC3=C(C)C=C2)C(C)OC(=O)C(C(C)C)N(C)C(=O)CN(C)C(=O)C7CCCN7C1=O (stereo not drawn),8.02%,8.45%,8.63%,7.17%,5.33%,4.97%,5.75%,5.02%,3.36%,1.81%,1.57%,6.55%,8.45%,7.11%,5.21%,4.11%,3.76%,4.54%,3.75%,2.28%,1.15%,1.09%,6.94%,7.82%,7.08%,7.7%,5.11%,4.36%,5.1%,3.89%,1.96%,2.2%,1.26%
